# Test results from paper PMC9923724, “Half sandwich-type osmium, ruthenium, iridium and rhodium complexes with bidentate glycosyl heterocyclic ligands induce cytostasis in platinum-resistant ovarian cancer cells and bacteriostasis in Gram-positive multiresistant bacteria” (Frontiers in Chemistry, 2023).
# Like-named read-outs stand apart in the source and are kept apart here.
# What was measured:
# [1] = Solubility / precipitation observed during testing; assay type: physicochemical; details: free ligand in cell assays
# Protocol: In concentrations exceeding 33.3 µM the complexes frequently precipitated. All of the complexes and the free ligand exerted little rapid cytotoxicity in MTT assays, not more than 35% in any of the cell lines assessed in the peak concentration, except for the Os-7 complex with 75% toxicity on ID8 cells (Figure 5; Table 2). […] The complexes were more efficient in ID8 cells as compared to A2780 cells (Figure 5; Table 2). […] On primary non-transformed fibroblasts, used as controls, the complexes exerted negligible toxicity and low cytostatic activity (Figure 5; Table 2). The cytostatic activity was not more than 50% in the peak concentration.
# [2] = tested on: A2780 ovarian cancer cells; details: ref Kacsir et al., cited from earlier work
# [3] = tested on: multiresistant bacteria (Staphylococcus aureus, Enterococcus species); parameters: method as in Balázs et al., 2022; details: ref Balázs et al., 2022; cited from earlier work
# [4] = tested on: A2780 ovarian cancer cells; experiment: MTT reduction assay (rapid toxicity, 4 h) on A2780 cells; assay type: cell-based; details: 4 h treatment
# Protocol: (§1) First, we assessed a set of osmium complexes (similar to Ia [[Kacsir et al., 2022]) in Figure 1] and their sugar-derived ligands, in which the benzoyl protective groups on the carbohydrate moiety were replaced by aliphatic acyl groups of different chain length (straight chain C3-C7–CO). Osmium was selected as a central ion, since osmium complexes had the best biological activity in our previous studies ([Balázs et al., 2022]; [Kacsir et al., 2022]). These compounds were tested on A2780 ovarian cancer cells for toxicity and cytostasis. The therapy of ovarian cancer is centered around platinum compounds ([Brown et al., 2019]; [Sipos et al., 2021]), therefore, it was logical to use a cellular model of ovarian cancer for the initial testing of the compounds. Toxicity was assessed using the MTT assay that measures the activity of mitochondrial complex I. We chose 4 h long treatment as in an MTT assay this time point is suitable to detect rapid, direct toxicity. Cytostasis was assessed after 48 h of treatment using the SRB assay that assesses protein content that corresponds to cell count. The characteristics of the compounds are detailed in Table 2.
# (§2) 3 × 10^3 A2780 cells, were plated to 96 well plates. Cells were treated with the compounds in the concentrations indicated for either 4 h for an MTT assay or for 48 h for an SRB assay. Data is represented as average ± SD, from three biological replicates; individual assays were performed in duplicates. Values were normalized for vehicle treated cells, absorbance for vehicle treated cells equals to 1. […] Except for the Os-6 complex, Two-way ANOVA test was performed and all values were compared with each other (Tukey’s post hoc test). […] Non-linear regression was performed on the data.
# (§3) 3 × 10^3 A2780 cells, 2 × 10^3 ID8 cells and 4 × 10^3 primary fibroblasts were plated to 96 well plates. Cells were treated with the compounds in the concentrations indicated for either 4 h for an MTT assay or for 48 h for an SRB assay. Data is represented as average ± SD, from three biological replicates; individual assays were performed in duplicates. Values were normalized for vehicle treated cells, absorbance for vehicle treated cells equals to 1. Statistical significance was assessed using two-way ANOVA test comparing the free ligand and each complex as a complex-ligand pair. Before the test normality was assessed using the D’Agostino-Pearson test. The ID8 SRB Ir-7+L-7 dataset had lognormal distribution. […] All other datasets had normal distribution. For better visibility the p values are presented in an excel sheet at https://figshare.com/s/2c942a812caea8869a67. Non-linear regression was performed on the A2780 SRB and the ID8 SRB datasets.
# (§4) MTT reduction assay measures the activity of mitochondrial complex I and can be used to detect toxicity ([Virág et al., 1998]; [Henslee et al., 2016]). The assay was performed similar to ([Bakondi et al., 2003]). Briefly, cells were plated in 96 well plates the day before the assay. Cells were treated with the compounds for 4 h, then MTT was added in 0.5 mg/ml final concentration and cells were incubated at 37°C in a cell incubator. Culture media was removed and the reduced MTT dye was dissolved in dimethyl-sulfoxide (DMSO) and plates were measured in a plate photometer (Thermo Scientific Multiscan GO spectrophotometer, Waltham, MA, United States) at 540 nm. On each plate wells were designed to contain untreated/vehicle-treated cells. In calculations the readings for these wells was considered as 1 and all readings were expressed relative to these values.
# [5] = tested on: primary dermal fibroblasts; experiment: MTT reduction assay (4 h) on primary fibroblasts; assay type: cell-based; details: primary human dermal fibroblasts
# Protocol: as §3
# Human primary dermal fibroblasts were cultured in low glucose DMEM (1 g/L glucose) medium supplemented with 20% fetal calf serum, 2 mM glutamine, 1% penicillin-streptomycin.
# as §4
# [6] = tested on: A2780 ovarian cancer cells; experiment: SRB assay (cytostasis, 48 h) on A2780 cells; assay type: cell-based; details: 48 h treatment
# Protocol: as §1, §2, §3
# (§5) The assay was performed similar to ([Kovács et al., 2019]). Cells were seeded in 96 well plates the day before the assay. Cells were treated with the compounds for 48 h. Cells were fixed with 10% trichloroacetic acid (TCA). Fixed cells were washed in distilled water 3 times followed by staining with SRB (0.4 m/V% dissolved in 1% acetic acid) for 10 min. Stained cells were washed in 1% acetic acid 5 times; acetic acid was removed and cells were left to dry. Protein-bound SRB was released by adding 100 µl 10 mM Tris base. Plates were measured in a plate photometer (Thermo Scientific Multiscan GO spectrophotometer, Waltham, MA, United States) at 540 nm. On each plate wells were designed to contain vehicle-treated cells. In calculations the readings for these wells was considered as 1 and all readings were expressed relative to these values.
# Statistical analysis was performed using 8.0.1 version of Graphpad Prism. Values were tested for normal distribution using the D’Agostino and Pearson normality test. When necessary, values were log normalized or were normalized using the Box-Cox normalization method ([Box and Cox, 1964]) as indicated in the figure captions. […]
# [7] = tested on: cisplatin resistant A2780 cells; experiment: SRB assay (48 h) on cisplatin-resistant A2780 cells; assay type: cell-based
# Protocol: 6 × 10^3 cisplatin-resistant A2780 cells were plated to 96 well plates. Cells were treated with the compounds in the concentrations indicated for either 4 h for an MTT assay or for 48 h for an SRB assay. Data is represented as average ± SD, from three biological replicates; individual assays were performed in duplicates. Values were normalized for vehicle treated cells, absorbance for vehicle treated cells equals to 1. Each compound was assessed individually. Normality was assessed using the Shapiro-Wilk test. […] Statistical significance was assessed using One-way ANOVA test comparing all points to the smallest concentration. For better visibility the p values are presented in an excel sheet at https://figshare.com/s/2c942a812caea8869a67. Non-linear regression was performed on the results of the SRB assay datasets.
# Cisplatin resistant cells underwent selection (1 µM cisplatin) once a week for 3 days before plating for any assay.
# as §5
# Statistical analysis was performed using 8.0.1 version of Graphpad Prism. Values were tested for normal distribution using the D’Agostino and Pearson normality test. When necessary, values were log normalized or were normalized using the Box-Cox normalization method ([Box and Cox, 1964]) as indicated in the figure captions.
# [8] = Determination of the distribution coefficients (logD); assay type: physicochemical; details: distribution coefficient
# [9] = tested on: methicillin-resistant Staphylococcus aureus (MRSA) clinical isolates; experiment: Broth microdilution MIC, clinical MRSA isolates; assay type: cell-based
# Protocol: (§6) The MIC values of the complexes were determined against the reference strains of S. aureus (ATCC29213) and E. faecalis. (ATCC29212) and against clinical VRE and MRSA isolates by microdilution assays (repeated at least twice in duplicates) as described in Materials and Methods. The numbers indicate how many isolates were susceptible to the compound out of those tested; i.e., 1/6 stands for 1 isolate was susceptible out of 6 tested. […] Cells were harvested and lysed. Cellular proteins was separated on a 10% SDS-PAGE gel and were blotted. Blots were probed with 4HNE antibody (top blot), the lower blot was stained with amido black. Arrows point at band of interest. Experiments were repeated three times and a representative blot is shown. On the blots brightness and contrast were adjusted. […] Each was matched to a substance and strain by its position over the x-axis categories. / Ir-7: ND and 0/3 (left plot) and ND and 0/6 (right plot) were matched to E. faecalis/VRE and S. aureus/MRSA by position only.
# (§7) We used a set of clinical isloates of S. aureus and E. faecium that were collected at the Medical Center of the University of Debrecen (Hungary) between 01. 01. 2018.—31. 12. 2020. The clinical isolates were identified using a Microflex MALDI-TOF mass spectrometer (Bruker, Billerica, MA, United States). Antibiotic susceptibility of the isolates was tested following the European Committee on Antimicrobial Susceptibility Testing ([EUCAST, 2021]) guidelines valid at the time of collection.
# (§8) Microdilution experiments were performed according to the standards of EUCAST ([EUCAST, 2021]). […] The inoculated plates were incubated for 24 h at 37°C then were assessed visually. […] All experiments were performed at least twice in duplicates.
# [10] = tested on: Staphylococcus aureus (ATCC29213); experiment: Broth microdilution MIC, Staphylococcus aureus reference strain; assay type: cell-based
# Protocol: as §6
# (§9) We used the reference strains of Staphylococcus aureus (ATCC29213), and Enterococcus faecalis (ATCC29212) that were purchased from ATCC (Manassas, VA, United States).
# as §8
# [11] = tested on: vancomycin-resistant Enterococcus (VRE) clinical isolates; experiment: Broth microdilution MIC, clinical VRE isolates; assay type: cell-based, E. faecium
# Protocol: as §6, §7, §8
# [12] = tested on: Enterococcus faecalis (ATCC29212); experiment: Broth microdilution MIC, Enterococcus faecalis reference strain; assay type: cell-based; details: Enterococcus faecalis ATCC29212, 24 h
# Protocol: as §6, §9, §8
# [13] = cisplatin resistant A2780 cells, SRB, 48 h
structure (smiles),measurement,setting,value
CCCCCCCC(=O)OC[C@H]1O[C@@H](n2cc(-c3ccccn3)nn2)[C@H](OC(=O)CCCCCCC)[C@@H](OC(=O)CCCCCCC)[C@@H]1OC(=O)CCCCCCC [L-6],solubility (suitability for testing),[1],insoluble
Cc1ccc(C(C)C)cc1.F[P-](F)(F)(F)(F)F.O=C(OCC1OC(n2cc(-c3ccccn3)nn2)C(OC(=O)c2ccccc2)C(OC(=O)c2ccccc2)C1OC(=O)c1ccccc1)c1ccccc1.[Cl][Os+] (mixture of isomers) [Ia],IC50,"[2]; A2780 cells, 2022, read-out: IC50 against A2780 ovarian cancer",730 nM
same,MIC on multiresistant bacteria,[3],0.3 to 5.0 µM
Cc1c(C)c(C)[c-](C)c1C.F[P-](F)(F)(F)(F)F.O=C(OCC1OC(n2cc(-c3ccc4ccccc4n3)nn2)C(OC(=O)c2ccccc2)C(OC(=O)c2ccccc2)C1OC(=O)c1ccccc1)c1ccccc1.[Cl][Rh+2] (mixture of isomers) [Rh-7],A2780 MTT Max. (maximal inhibition),[4],18.3%
same,Fibroblast MTT Max. (maximal inhibition),[5],15.09%
same,A2780 SRB Max. (maximal inhibition),[6],47.9%
"N.N.[Cl][Pt][Cl] [Cisplatin, cisplatin, reference compound]","A2780 SRB Max. (maximal inhibition), cisplatin","[2]; A2780 cells, SRB, 2021",>90%
same,IC50,"[2]; cisplatin-sensitive A2780 cells, SRB, 2021, read-out: A2780 SRB IC50, cisplatin",1210 nM
same,"fold change of IC50, cisplatin resistant vs cisplatin sensitive A2780","[7]; SRB assays, resistant / sensitive A2780",13.6 fold
same,IC50,[7]; [13],16500 nM
same,cisplatin resistant A2780 SRB Max. (maximal inhibition),[7]; [13],>90%
CCCCCC(=O)OCC1OC(n2cc(-c3ccccn3)nn2)C(OC(=O)CCCCC)C(OC(=O)CCCCC)C1OC(=O)CCCCC.Cc1ccc(C(C)C)cc1.F[P-](F)(F)(F)(F)F.[Cl][Os+] (mixture of isomers) [Os-4],LogD,[8],2.7
same,MRSA isolates susceptible out of those tested,"[9]; 6 isolates tested, susceptible = MIC up to 40 µM",1/6
same,"MIC, MRSA 20 426","[9]; clinical isolate 20 426, blood, 2020",40< µM
same,"MIC, MRSA 24 035","[9]; clinical isolate 24 035, wound, 2018",40< µM
same,"MIC, MRSA 24 268","[9]; clinical isolate 24 268, throat, 2018",40< µM
same,"MIC, MRSA 24 272","[9]; clinical isolate 24 272, throat, 2018",40< µM
same,"MIC, MRSA 24 328","[9]; clinical isolate 24 328, throat, 2018",40< µM
same,"MIC, MRSA 24 408","[9]; clinical isolate 24 408, bronchial, 2018",40 µM
same,"MIC, Reference S. aureus","[10]; Staphylococcus aureus ATCC29213, 24 h",40< µM
same,"MIC (μM) (S. aureus), Figure 11",[10]; reference strain ATCC29213,"ND (ND—not detected, MIC>40 µM)"
same,A2780 MTT Max. (maximal inhibition),[4],84.4%
same,VRE isolates susceptible out of those tested,"[11]; 3 isolates tested, susceptible = MIC up to 40 µM",3/3
same,"MIC, VRE 25 051","[11]; clinical isolate 25 051, nephrostoma, 2018",40 µM
same,"MIC, VRE 25 498","[11]; clinical isolate 25 498, rectal swab, 2018",40 µM
same,"MIC, VRE 27 085","[11]; clinical isolate 27 085, wound, 2018",40 µM
same,"MIC, Reference E. faecalis",[12],40 µM
same,A2780 SRB Max. (maximal inhibition),[6],>90%
same,IC50,[6],3870 nM
